Laboratory results published in the supplement of paper PMC10307832.

Columns and labels:
Test in all cases: relative viability (nuclei count vs DMSO), 5 days (fraction); higher = more cells survive
[1] = compound: Cn1cc(-c2cnc3ccc4ccc(CS(=O)(=O)NCc5ccccn5)cc4c(=O)c3c2)cn1 [MK-8033] + N=C(N)NC(=N)NCCc1ccccc1 [Phenformin] (partner 250 µM)
Procedure, shortened: (§1)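 Lung cancer cell lines in 1536-well plates were dosed by pin tool the day after seeding, either with one drug alone or with a fixed anchor-drug dose plus five library-drug doses (not always all listed) in √10 steps. After 5 days, cells were fixed and their nuclei stained in one step (final 0.05% Triton X-100, 1% formaldehyde, 1 ug/ml Hoechst), then counted on 4× images. Relative viability is the nuclei count in treated wells divided by that in vehicle wells. Values are medians of duplicate plates.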

[2] = compound: CC[C@@H](C)CNCC(=O)N1CCC2=C([C@@H]1COC3=CC=CC(=C3)C)C=CS2 [RU-SKI 43] + CS(=O)(=O)N1CCN(Cc2cc3nc(-c4cccc5[nH]ncc45)nc(N4CCOCC4)c3s2)CC1 [Pictilisib] (partner 1 µM)
Procedure, shortened: as §1

[3] = compound: CC[C@@H](C)CNCC(=O)N1CCC2=C([C@@H]1COC3=CC=CC(=C3)C)C=CS2 [RU-SKI 43] + CC(=O)Nc1cccc(-n2c(=O)n(C3CC3)c(=O)c3c(Nc4ccc(I)cc4F)n(C)c(=O)c(C)c32)c1 [Trametinib] (partner 0.02 µM)
Procedure, shortened: as §1

[4] = compound: CCc1c2c(nc3ccc(OC(=O)N4CCC(N5CCCCC5)CC4)cc13)-c1cc3c(c(=O)n1C2)COC(=O)[C@]3(O)CC [Irinotecan] + Cc1nc(NC(=O)N2CCC[C@H]2C(N)=O)sc1-c1ccnc(C(C)(C)C(F)(F)F)c1 [Alpelisib] (partner 2 µM)
Procedure, shortened: as §1

Row | Cell Line | relative viability ([1]; first compound 0.02 µM) | relative viability ([1]; first compound 0.06325 µM) | relative viability ([1]; first compound 0.2 µM) | relative viability ([1]; first compound 0.6325 µM) | relative viability ([1]; first compound 2 µM) | relative viability ([2]; first compound 0.1 µM) | relative viability ([2]; first compound 0.3162 µM) | relative viability ([2]; first compound 1 µM) | relative viability ([2]; first compound 3.162 µM) | relative viability ([2]; first compound 10 µM) | relative viability ([3]; first compound 0.1 µM) | relative viability ([3]; first compound 0.3162 µM) | relative viability ([3]; first compound 1 µM) | relative viability ([3]; first compound 3.162 µM) | relative viability ([3]; first compound 10 µM) | relative viability ([4]; first compound 0.6325 µM) | relative viability ([4]; first compound 2 µM) | relative viability ([4]; first compound 6.325 µM) | relative viability ([4]; first compound 20 µM)
1 | NCI-H1993 | 0.591 | 0.469 | 0.497 | 0.537 | 0.488 | 0.718 | 0.597 | 0.769 | 0.964 | 0.719 | 0.474 | 0.514 | 0.615 | 0.579 | 0.694 | 0.617 | 0.643 | 0.63 | 0.68
2 | NCI-H2009 | 0.524 | 0.476 | 0.456 | 0.482 | 0.463 | 0.788 | 1.06 | 0.9 | 0.883 | 0.773 | 0.28 | 0.295 | 0.291 | 0.313 | 0.244 | 0.838 | 0.591 | 0.26 | 0.135
3 | NCI-H2023 | 0.41 | 0.348 | 0.348 | 0.356 | 0.306 | 0.269 | 0.213 | 0.236 | 0.264 | 0.212 | 0.585 | 0.643 | 0.547 | 0.685 | 0.528 | 0.607 | 0.468 | 0.202 | 0.0912
4 | NCI-H2085 | 0.736 | 0.554 | 0.694 | 0.703 | 0.674 | 0.476 | 0.353 | 0.473 | 0.409 | 0.469 | 0.506 | 0.493 | 0.494 | 0.653 | 0.499 | 0.888 | 0.75 | 0.458 | 0.482
5 | NCI-H2087 | 0.5 | 0.434 | 0.417 | 0.435 | 0.386 | 0.797 | 0.992 | 1.16 | 0.992 | 0.944 | 0.233 | 0.159 | 0.221 | 0.189 | 0.161 | 0.437 | 0.22 | 0.215 | 0.211
6 | NCI-H2126 | 0.511 | 0.494 | 0.497 | 0.533 | 0.51 | 0.491 | 0.407 | 0.549 | 0.492 | 0.507 | 0.56 | 0.605 | 0.506 | 0.607 | 0.559 | – | 0.384 | 0.289 | 0.312
7 | NCI-H2170 | 0.447 | 0.424 | 0.374 | 0.407 | 0.399 | 0.293 | 0.256 | 0.334 | 0.282 | 0.278 | 0.975 | 1.39 | 1.04 | 0.908 | 0.946 | 0.929 | 0.399 | 0.3 | 0.216
8 | NCI-H2228 | 0.399 | 0.287 | 0.345 | 0.294 | 0.299 | 0.306 | 0.375 | 0.42 | 0.51 | 0.285 | 0.37 | 0.55 | 0.466 | 0.396 | 0.306 | 0.791 | 0.598 | 0.431 | 0.408
9 | NCI-H2347 | 0.442 | 0.37 | 0.57 | 0.59 | 0.428 | 0.589 | 1.18 | 0.595 | 0.72 | 0.574 | 0.293 | 0.275 | 0.388 | 0.289 | 0.302 | 0.858 | 0.763 | 0.482 | 0.464
10 | NCI-H2405 | 0.406 | 0.348 | 0.403 | 0.377 | 0.367 | 0.393 | 0.34 | 0.436 | 0.472 | 0.333 | 0.645 | 0.681 | 0.612 | 0.713 | 0.581 | – | 0.678 | 0.291 | 0.0889
11 | NCI-H3122 | 0.346 | 0.347 | 0.347 | 0.368 | 0.354 | 0.644 | 0.543 | 0.641 | 0.559 | 0.578 | 0.244 | 0.233 | 0.241 | 0.252 | 0.259 | 0.824 | 0.301 | 0.244 | 0.255
12 | PC-3 [JPC-3] | 0.482 | 0.426 | 0.469 | 0.475 | 0.503 | 0.768 | 0.69 | 0.805 | 0.816 | 0.683 | 0.63 | 0.523 | 0.79 | 0.662 | 0.62 | 0.814 | 0.413 | 0.319 | 0.305
13 | PC-14 | 0.605 | 0.472 | 0.508 | 0.524 | 0.564 | 0.644 | 0.716 | 0.756 | 0.646 | 0.462 | 0.637 | 0.824 | 0.82 | 0.652 | 0.533 | 0.925 | 0.9 | 0.465 | 0.184
14 | RERF-LC-KJ | 0.406 | 0.368 | 0.431 | 0.434 | 0.364 | 0.535 | 0.529 | 0.61 | 0.548 | 0.476 | 0.846 | 0.84 | 0.914 | 0.85 | 0.768 | – | 0.835 | 0.501 | 0.454
15 | SK-LU-1 | 0.519 | 0.505 | 0.518 | 0.497 | 0.53 | 0.556 | 0.578 | 0.634 | 0.678 | 0.554 | 0.43 | 0.495 | 0.492 | 0.49 | 0.385 | 0.459 | 0.541 | 0.351 | 0.273
16 | SK-MES-1 | 0.67 | 0.622 | 0.634 | 0.719 | 0.671 | 0.34 | 0.332 | 0.366 | 0.444 | 0.336 | 0.482 | 0.597 | 0.522 | 0.52 | 0.474 | 0.997 | 0.877 | 0.426 | 0.267
17 | SW 1573 | 0.374 | 0.311 | 0.367 | 0.326 | 0.249 | 0.519 | 0.544 | 0.581 | 0.648 | 0.455 | 0.586 | 0.591 | 0.584 | 0.567 | 0.39 | 0.829 | 0.481 | 0.192 | 0.204
